Measurements: patent US20260265329A1, “POLYPEPTIDE AND DERIVATIVE THEREOF, COMPOSITION, AND USE THEREOF” (HANGZHOU SCIWIND BIOSCIENCES CO., LTD., priority 2023, published 2026)
Starred links: 1 amine or outer side, 2 acyl side, 3 side chain; linkers in the order of their positions; H or OH if unused. Non-standard residues stand in square brackets, D forms with d. Residues, ends and D or L forms follow the SMILES beside them. *: point of attachment. C20 diacid = O=C(O)CCCCCCCCCCCCCCCCCCC(=O)*; γGlu = O=C(O)[C@H](CCC(=O)[*:2])N[*:1]; Hyp = O=C(O)[C@@H]1C[C@@H](O)CN1; Trx = NC[C@H]1CC[C@H](C(=O)O)CC1; AEEA = NCCOCCOCC(=O)O

Biological target: T1, human amylin receptors (Homo sapiens, UniProt O60896+P30988)
T1 construct: host or cells: CHO-K1/Ga15/AMY3 cells, further stably transfected with a CRE-luciferase plasmid
T1 sequence (P30988 25-474): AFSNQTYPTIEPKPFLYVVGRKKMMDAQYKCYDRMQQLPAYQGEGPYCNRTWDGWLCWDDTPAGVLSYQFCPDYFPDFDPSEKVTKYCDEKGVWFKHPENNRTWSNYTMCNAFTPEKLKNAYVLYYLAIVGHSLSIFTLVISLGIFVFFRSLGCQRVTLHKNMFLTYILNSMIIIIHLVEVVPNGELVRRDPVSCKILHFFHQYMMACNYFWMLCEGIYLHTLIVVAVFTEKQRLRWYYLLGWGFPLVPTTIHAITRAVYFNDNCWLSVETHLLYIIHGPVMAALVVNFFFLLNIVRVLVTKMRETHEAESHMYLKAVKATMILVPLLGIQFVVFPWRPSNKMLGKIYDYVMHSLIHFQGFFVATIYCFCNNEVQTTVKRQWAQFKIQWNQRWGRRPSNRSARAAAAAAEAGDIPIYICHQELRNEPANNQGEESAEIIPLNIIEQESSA
T1 sequence (O60896 24-148 partner): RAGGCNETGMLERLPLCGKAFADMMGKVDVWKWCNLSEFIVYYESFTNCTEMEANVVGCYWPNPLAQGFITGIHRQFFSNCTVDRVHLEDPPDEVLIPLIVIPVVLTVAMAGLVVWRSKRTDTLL
Experiment: Luciferase assay in stably transfected amylin receptor/CRE-luc CHO cell line
Format: cell-based
Conditions: for Relative activity: EC50 ratio of Cagrilintide to the compound, Cagrilintide 100%

Compound	Relative activity	EC50 (amylin receptor/CRE-luc CHO cells, 24 hours incubation, luminescence)
CC[C@H](C)[C@H](NC(=O)[C@H](CC(=O)O)NC(=O)[C@H](CCCNC(=N)N)NC(=O)[C@H](CC(=O)O)NC(=O)[C@H](CCCNC(=N)N)NC(=O)[C@H](CC(=O)O)NC(=O)[C@@H](NC(=O)[C@H](Cc1ccccc1)NC(=O)[C@H](Cc1c[nH]cn1)NC(=O)[C@H](CCCNC(=N)N)NC(=O)[C@H](CC(C)C)NC(=O)[C@H](Cc1ccccc1)NC(=O)[C@H](CC(=O)O)NC(=O)[C@H](C)NC(=O)[C@H](CC(C)C)NC(=O)[C@H](CCCNC(=N)N)NC(=O)[C@H](CCC(N)=O)NC(=O)[C@@H](NC(=O)[C@H](C)NC(=O)[C@H](C)NC(=O)[C@@H](NC(=O)[C@H](CO)NC(=O)[C@H](CC(C)C)NC(=O)[C@H](CCC(N)=O)NC(=O)[C@H](CO)NC(=O)[C@H](C)NC(=O)COCCOCCNC(=O)COCCOCCNC(=O)[C@H]1CC[C@H](CNC(=O)CCCCCCCCCCCCCCCCCCC(=O)O)CC1)[C@@H](C)O)[C@@H](C)O)[C@@H](C)O)C(=O)N[C@@H](CC(C)C)C(=O)N1CCC[C@H]1C(=O)N1CCC[C@H]1C(=O)N[C@H](C(=O)N[C@@H](CC(N)=O)C(=O)N[C@H](C(=O)NCC(=O)N[C@@H](CO)C(=O)N[C@@H](CC(N)=O)C(=O)N[C@H](C(=O)N1CCC[C@H]1C(N)=O)[C@@H](C)O)C(C)C)[C@@H](C)O [M20] ({C20 diacid-Trx-AEEA-AEEA}-ASQLSTAATQRLADFLRHFTDRDRDILPPTNVGSNTP-NH2)	171%	–
CC[C@H](C)[C@H](NC(=O)[C@@H]1CCCN1C(=O)[C@H](CCCCN)NC(=O)[C@H](CC(C)C)NC(=O)[C@H](CC(N)=O)NC(=O)[C@H](CC(N)=O)NC(=O)[C@H](CO)NC(=O)[C@H](CO)NC(=O)[C@H](Cc1c[nH]cn1)NC(=O)[C@H](CCCNC(=N)N)NC(=O)[C@H](CC(C)C)NC(=O)[C@H](Cc1ccccc1)NC(=O)[C@H](CC(=O)O)NC(=O)[C@H](C)NC(=O)[C@H](CC(C)C)NC(=O)[C@H](CCCNC(=N)N)NC(=O)[C@H](CCC(N)=O)NC(=O)[C@@H](NC(=O)[C@H](C)NC(=O)[C@H](C)NC(=O)[C@@H](NC(=O)[C@H](CO)NC(=O)[C@H](CC(C)C)NC(=O)[C@H](CCC(N)=O)NC(=O)[C@H](CO)NC(=O)[C@H](C)NC(=O)[C@H](CCC(=O)O)NC(=O)CCCCCCCCCCCCCCCCCCC(=O)O)[C@@H](C)O)[C@@H](C)O)C(=O)N[C@@H](CC(C)C)C(=O)N1CCC[C@H]1C(=O)N1CCC[C@H]1C(=O)N[C@H](C(=O)N[C@@H](CC(N)=O)C(=O)N[C@H](C(=O)NCC(=O)N[C@@H](CO)C(=O)N[C@@H](CC(N)=O)C(=O)N[C@H](C(=O)N1C[C@H](O)C[C@H]1C(N)=O)[C@@H](C)O)C(C)C)[C@@H](C)O [M26] ({C20 diacid}-EASQLSTAATQRLADFLRHSSNNLKPILPPTNVGSNT[Hyp]-NH2)	103%	0.049 nM
CC[C@H](C)[C@H](NC(=O)[C@H](CC(=O)O)NC(=O)[C@H](CCCNC(=N)N)NC(=O)[C@H](CC(=O)O)NC(=O)[C@H](CCCNC(=N)N)NC(=O)[C@H](CC(=O)O)NC(=O)[C@@H](NC(=O)[C@H](Cc1ccccc1)NC(=O)[C@H](Cc1c[nH]cn1)NC(=O)[C@H](CCCNC(=N)N)NC(=O)[C@H](CC(C)C)NC(=O)[C@H](Cc1ccccc1)NC(=O)[C@H](CC(=O)O)NC(=O)[C@H](C)NC(=O)[C@H](CC(C)C)NC(=O)[C@H](CCCNC(=N)N)NC(=O)[C@H](CCC(N)=O)NC(=O)[C@@H](NC(=O)[C@H](C)NC(=O)[C@H](C)NC(=O)[C@@H](NC(=O)[C@H](CO)NC(=O)[C@H](CC(C)C)NC(=O)[C@H](CCC(N)=O)NC(=O)[C@H](CO)NC(=O)[C@H](C)NC(=O)COCCOCCNC(=O)COCCOCCNC(=O)COCCOCCNC(=O)COCCOCCNC(=O)COCCOCCNC(=O)COCCOCCNC(=O)CC[C@H](NC(=O)CCCCCCCCCCCCCCCCCCC(=O)O)C(=O)O)[C@@H](C)O)[C@@H](C)O)[C@@H](C)O)C(=O)N[C@@H](CC(C)C)C(=O)N1CCC[C@H]1C(=O)N1CCC[C@H]1C(=O)N[C@H](C(=O)N[C@@H](CC(N)=O)C(=O)N[C@H](C(=O)NCC(=O)N[C@@H](CO)C(=O)N[C@@H](CC(N)=O)C(=O)N[C@H](C(=O)N1CCC[C@H]1C(N)=O)[C@@H](C)O)C(C)C)[C@@H](C)O [M25] ({C20 diacid-γGlu-AEEA-AEEA-AEEA-AEEA-AEEA-AEEA}-ASQLSTAATQRLADFLRHFTDRDRDILPPTNVGSNTP-NH2)	25%	–
